# Measurements: US12594276B2, “Inhibitors of human immunodeficiency virus replication” (ViiV Healthcare UK (No.5) Limited, priority 2024, dated 2026)
# Key:
# [1] = tested on: recombinant NL4-3 virus (nef section replaced with Renilla luciferase gene) in MT-2 cells; assay: HIV cell culture assay (antiviral activity, luciferase readout); format: cell-based; conditions: Renilla, NL43, MT-2 cells infected for 4-5 days with recombinant NL4-3 Renilla luciferase virus
# Outline: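 The reporter virus was produced by transfecting 293T cells with the NL4-3 nef/Renilla luciferase proviral clone. MT-2 cells were infected for 4–5 days with serial compound dilutions present. Luciferase was read with a live-cell substrate, and EC50 came from the exponential median-effect equation.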
# [2] = Compound cytotoxicity, XTT-based colorimetric assay; format: cell-based; conditions: human; uninfected MT2 cells, day 4, XTT; read-out: CC50
# Outline: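 Uninfected MT2 cells, antiviral-assay protocol without virus; XTT colorimetric readout day 4; CC50 reported.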
Structure (SMILES),EC50 [1] [nM],CC50 at 4 days [2] [nM]
"Cc1cc(C2(F)CCC(F)(F)CC2)nc2nc([C@H](Cc3cc(F)cc(F)c3)NC(=O)Cn3nc(C4CC4)c4c3C[C@@H]3C[C@H]43)n(-c3ccc(Cl)c4c(NS(C)(=O)=O)nn([C@H](C)C(=O)N5C[C@@H](C)O[C@@H](C)C5)c34)c(=O)c12 (relative stereo) [Example 744, N-[(1S)-1-[(3P)-3-{4-chloro-1-[(2R)-1-[(2R,6S)-2,6-dimethylmorpholin-4-yl]-1-oxopropan-2-yl]-3-methanesulfonamido-1H-indazol-7-yl}-5-methyl-4-oxo-7-(1,4,4-trifluorocyclohexyl)-3H,4H-pyrido[2,3-d]pyrimidin-2-yl]-2-(3,5-difluorophenyl)ethyl]-2-[(2R*,4R*)-9-cyclopropyl-7,8-diazatricyclo[4.3.0.0^2,^4]nona-1(6),8-dien-7-yl]acetamide]",0.017,> 20
"COCCNc1cc(C2CCC(F)(F)CC2)nc2nc([C@H](Cc3cc(F)cc(F)c3)NC(=O)Cn3nc(C(F)F)c4c3C(F)(F)[C@@H]3C[C@H]43)n(-c3ccc(Cl)c4c(NS(C)(=O)=O)nn(CCN5C[C@H]6CC[C@@H](C5)O6)c34)c(=O)c12 (atropisomer, axis not shown; (P)) [Example 420, N-[(1S)-1-[(3P)-3-(4-chloro-3-methanesulfonamido-1-{2-[(1R,5S)-8-oxa-3-azabicyclo[3.2.1]octan-3-yl]ethyl}-1H-indazol-7-yl)-7-(4,4-difluorocyclohexyl)-5-[(2-methoxyethyl)amino]-4-oxo-3H,4H-pyrido[2,3-d]pyrimidin-2-yl]-2-(3,5-difluorophenyl)ethyl]-2-[(2S,4R)-9-(difluoromethyl)-5,5-difluoro-7,8-diazatricyclo[4.3.0.0^2,^4]nona-1(6),8-dien-7-yl]acetamide]",0.011,> 20
"C[C@@H]1CN(Cc2cc(C3CCC(F)(F)CC3)nc3nc([C@H](Cc4cc(F)cc(F)c4)NC(=O)Cn4nc(C(F)F)c5c4C(F)(F)[C@@H]4C[C@H]54)n(-c4ccc(Cl)c5c(NS(C)(=O)=O)nn(CCN6CCC(F)CC6)c45)c(=O)c23)C[C@H](C)O1 (atropisomer, axis not shown; (P)) [Example 527, N-[(1S)-1-[(3P)-3-{4-chloro-1-[2-(4-fluoropiperidin-1-yl)ethyl]-3-methanesulfonamido-1H-indazol-7-yl}-7-(4,4-difluorocyclohexyl)-5-{[(2R,6S)-2,6-dimethylmorpholin-4-yl]methyl}-4-oxo-3H,4H-pyrido[2,3-d]pyrimidin-2-yl]-2-(3,5-difluorophenyl)ethyl]-2-[(2S,4R)-9-(difluoromethyl)-5,5-difluoro-7,8-diazatricyclo[4.3.0.0^2,^4]nona-1(6),8-dien-7-yl]acetamide]",0.012,> 20
"Cc1cc(C2CCC(F)(F)CC2)nc2nc([C@H](Cc3cc(F)cc(F)c3)NC(=O)Cn3nc(C4CC4)c4c3C[C@@H]3C[C@H]43)n(-c3ccc(Cl)c4c(NS(C)(=O)=O)nn(CCN5C[C@H]6C[C@@H]5CO6)c34)c(=O)c12 (atropisomer, axis not shown; (P)) [Example 9, N-[(1S)-1-[(3P)-3-(4-chloro-3-methanesulfonamido-1-{2-[(1R,4R)-2-oxa-5-azabicyclo[2.2.1]heptan-5-yl]ethyl}-1H-indazol-7-yl)-7-(4,4-difluorocyclohexyl)-5-methyl-4-oxo-3H,4H-pyrido[2,3-d]pyrimidin-2-yl]-2-(3,5-difluorophenyl)ethyl]-2-[(2S,4S)-9-cyclopropyl-7,8-diazatricyclo[4.3.0.0^2,^4]nona-1(6),8-dien-7-yl]acetamide]",0.009,> 50
"Cc1cc(C2(F)CCC(F)(F)CC2)nc2nc([C@H](Cc3cc(F)cc(F)c3)NC(=O)Cn3nc(C(F)F)c4c3C(F)(F)[C@@H]3C[C@H]43)n(-c3ccc(Cl)c4c(NS(C)(=O)=O)nn(C[C@@H](C)N5C[C@@H](C)O[C@@H](C)C5)c34)c(=O)c12 (atropisomer, axis not shown; (P)) [Example 720, N-[(1S)-1-[(3P)-3-{4-chloro-1-[(2R)-2-[(2R,6S)-2,6-dimethylmorpholin-4-yl]propyl]-3-methanesulfonamido-1H-indazol-7-yl}-5-methyl-4-oxo-7-(1,4,4-trifluorocyclohexyl)-3H,4H-pyrido[2,3-d]pyrimidin-2-yl]-2-(3,5-difluorophenyl)ethyl]-2-[(2S,4R)-9-(difluoromethyl)-5,5-difluoro-7,8-diazatricyclo[4.3.0.0^2,^4]nona-1(6),8-dien-7-yl]acetamide]",0.007,> 20
"Cc1cc(C2(F)CCC(F)(F)CC2)nc2nc([C@H](Cc3cc(F)cc(F)c3)NC(=O)Cn3nc(C4CC4)c4c3C[C@@H]3C[C@H]43)n(-c3ccc(Cl)c4c(NS(C)(=O)=O)nn(CCN5CCOCC5(C)C)c34)c(=O)c12 (atropisomer, axis not shown; (P)) [Example 586, N-[(1S)-1-[(3P)-3-{4-chloro-1-[2-(3,3-dimethylmorpholin-4-yl)ethyl]-3-methanesulfonamido-1H-indazol-7-yl}-5-methyl-4-oxo-7-(1,4,4-trifluorocyclohexyl)-3H,4H-pyrido[2,3-d]pyrimidin-2-yl]-2-(3,5-difluorophenyl)ethyl]-2-[(2S,4S)-9-cyclopropyl-7,8-diazatricyclo[4.3.0.0^2,^4]nona-1(6),8-dien-7-yl]acetamide]",0.016,> 20
"Cc1cc(C2CCC(F)(F)CC2)nc2nc([C@H](Cc3cc(F)cc(F)c3)NC(=O)Cn3nc(C(F)F)c4c3C(F)(F)[C@@H]3C[C@H]43)n(-c3ccc(Cl)c4c(NS(C)(=O)=O)nn(CCN5CCOCC5)c34)c(=O)c12 (atropisomer, axis not shown; (P)) [Example 105, N-[(1S)-1-[(3P)-3-{4-chloro-3-methanesulfonamido-1-[2-(morpholin-4-yl)ethyl]-1H-indazol-7-yl}-7-(4,4-difluorocyclohexyl)-5-methyl-4-oxo-3H,4H-pyrido[2,3-d]pyrimidin-2-yl]-2-(3,5-difluorophenyl)ethyl]-2-[(2S,4R)-9-(difluoromethyl)-5,5-difluoro-7,8-diazatricyclo[4.3.0.0^2,^4]nona-1(6),8-dien-7-yl]acetamide]",0.011,> 50
"CO[C@H](C)Cn1nc(NS(C)(=O)=O)c2c(Cl)ccc(-n3c([C@H](Cc4cc(F)cc(F)c4)NC(=O)Cn4nc(C(F)F)c5c4C(F)(F)[C@@H]4C[C@H]54)nc4nc(C5CCC(F)(F)CC5)cc(C)c4c3=O)c21 (atropisomer, axis not shown; (P)) [Example 77, N-[(1S)-1-[(3P)-3-{4-chloro-3-methanesulfonamido-1-[(2R)-2-methoxypropyl]-1H-indazol-7-yl}-7-(4,4-difluorocyclohexyl)-5-methyl-4-oxo-3H,4H-pyrido[2,3-d]pyrimidin-2-yl]-2-(3,5-difluorophenyl)ethyl]-2-[(2S,4R)-9-(difluoromethyl)-5,5-difluoro-7,8-diazatricyclo[4.3.0.0^2,^4]nona-1(6),8-dien-7-yl]acetamide]",0.018,> 50
"COCCCNc1cc(C2CCC(F)(F)CC2)nc2nc([C@H](Cc3cc(F)cc(F)c3)NC(=O)Cn3nc(C(F)F)c4c3C(F)(F)[C@@H]3C[C@H]43)n(-c3ccc(Cl)c4c(NS(C)(=O)=O)nn(CCCOC)c34)c(=O)c12 (atropisomer, axis not shown; (P)) [Example 285, N-[(1S)-1-[(3P)-3-[4-chloro-3-methanesulfonamido-1-(3-methoxypropyl)-1H-indazol-7-yl]-7-(4,4-difluorocyclohexyl)-5-[(3-methoxypropyl)amino]-4-oxo-3H,4H-pyrido[2,3-d]pyrimidin-2-yl]-2-(3,5-difluorophenyl)ethyl]-2-[(2S,4R)-9-(difluoromethyl)-5,5-difluoro-7,8-diazatricyclo[4.3.0.0^2,^4]nona-1(6),8-dien-7-yl]acetamide]",0.009,> 50
"COCCCn1nc(NS(C)(=O)=O)c2c(Cl)ccc(-n3c([C@H](Cc4cc(F)cc(F)c4)NC(=O)Cn4nc(C(F)F)c5c4C(F)(F)[C@@H]4C[C@H]54)nc4nc(C5CCC(F)(F)CC5)cc(NCC5(F)CCOCC5)c4c3=O)c21 (atropisomer, axis not shown; (P)) [Example 484, N-[(1S)-1-[(3P)-3-[4-chloro-3-methanesulfonamido-1-(3-methoxypropyl)-1H-indazol-7-yl]-7-(4,4-difluorocyclohexyl)-5-{[(4-fluorooxan-4-yl)methyl]amino}-4-oxo-3H,4H-pyrido[2,3-d]pyrimidin-2-yl]-2-(3,5-difluorophenyl)ethyl]-2-[(2S,4R)-9-(difluoromethyl)-5,5-difluoro-7,8-diazatricyclo[4.3.0.0^2,^4]nona-1(6),8-dien-7-yl]acetamide]",0.006,> 20
"CO[C@H]1CCN(CCn2nc(NS(C)(=O)=O)c3c(Cl)ccc(-n4c([C@H](Cc5cc(F)cc(F)c5)NC(=O)Cn5nc(C(F)F)c6c5C(F)(F)[C@@H]5C[C@H]65)nc5nc(C6CCC(F)(F)CC6)cc(C(F)F)c5c4=O)c32)C1 (atropisomer, axis not shown; (P)) [Example 257, N-[(1S)-1-[(3P)-3-(4-chloro-3-methanesulfonamido-1-{2-[(3S)-3-methoxypyrrolidin-1-yl]ethyl}-1H-indazol-7-yl)-7-(4,4-difluorocyclohexyl)-5-(difluoromethyl)-4-oxo-3H,4H-pyrido[2,3-d]pyrimidin-2-yl]-2-(3,5-difluorophenyl)ethyl]-2-[(2S,4R)-9-(difluoromethyl)-5,5-difluoro-7,8-diazatricyclo[4.3.0.0^2,^4]nona-1(6),8-dien-7-yl]acetamide]",0.027,> 50
